Read-outs that look alike come from different tables or passages of the source.
Legend:
PC9 = experiment: Dose response study (Alamar Blue), PC9; format: cell-based; conditions: Homo sapiens, PC-9; PC9; 12 point doubling dilution 10 uM to 5 nM; 48 h treatment, alamar blue additional 48 h; read-out: IC50 PC9
H460 = experiment: Dose response study (Alamar Blue), H460; format: cell-based; conditions: Homo sapiens, NCI-H460; H460; 12 point doubling dilution 10 uM to 5 nM; 48 h treatment, alamar blue additional 48 h; read-out: IC50 H460
H1650 = experiment: Non Small Cell Lung Cancer proliferation assay (Alamar Blue reduction), H1650; format: cell-based, human; conditions: Homo sapiens
In short: (§1)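 Compounds are tested at 1% DMSO final concentration against adherent NSCLC cells for 48 h at 37° C, with cytotoxicity measured by Alamar Blue reduction after a further 48 h incubation.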

H2030 = experiment: Non Small Cell Lung Cancer proliferation assay (Alamar Blue reduction), H2030; format: cell-based, human; conditions: Homo sapiens
In short: as §1

H2444 = experiment: Dose response study (Alamar Blue), H2444; format: cell-based; conditions: Homo sapiens, NCI-H2444; H2444; 12 point doubling dilution 10 uM to 5 nM; 48 h treatment, alamar blue additional 48 h; read-out: IC50 H2444
[1] = test system: HPL1D (human peripheral lung epithelial) cell line; experiment: Cell proliferation / dose response (Alamar Blue), HPL1D; format: cell-based; conditions: HPL1D, 12 point doubling dilution 10 uM to 5 nM, 48 h treatment, alamar blue additional 48 h, read-out: IC50 HPL1D
In short: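 Dose–response proliferation was run in HPL1D human peripheral lung epithelial cells. Compound treatment lasted 48 h at 37 C, followed by alamar blue for a further 48 h. Alamar blue reduction was the read-out.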

H23 = experiment: Dose response study (Alamar Blue), H23; format: cell-based; conditions: Homo sapiens, NCI-H23; H23; 12 point doubling dilution 10 uM to 5 nM; 48 h treatment, alamar blue additional 48 h; read-out: IC50 H23
H358 = experiment: Non Small Cell Lung Cancer proliferation assay (Alamar Blue reduction), H358; format: cell-based; conditions: Homo sapiens, NCI-H358
In short: as §1

H820 = experiment: Dose response study (Alamar Blue), H820; format: cell-based; conditions: Homo sapiens, NCI-H820; H820; 12 point doubling dilution 10 uM to 5 nM; 48 h treatment, alamar blue additional 48 h; read-out: IC50 H820
H1734 = experiment: Non Small Cell Lung Cancer proliferation assay (Alamar Blue reduction), H1734; format: cell-based, human; conditions: Homo sapiens, NCI-H1734
In short: as §1

H3255 = experiment: Non Small Cell Lung Cancer proliferation assay (Alamar Blue reduction), H3255; format: cell-based, human; conditions: Homo sapiens
In short: as §1

H2122 = experiment: Dose response study (Alamar Blue), H2122; format: cell-based; conditions: Homo sapiens, NCI-H2122; H2122; 12 point doubling dilution 10 uM to 5 nM; 48 h treatment, alamar blue additional 48 h; read-out: IC50 H2122
A549 = experiment: Dose response study (Alamar Blue), A549; format: cell-based; conditions: Homo sapiens; A549; 12 point doubling dilution 10 uM to 5 nM; 48 h treatment, alamar blue additional 48 h; read-out: IC50 A549
[2] = NCI-H1650, 48 h, H1650, 12 point doubling dilution 10 uM to 5 nM, 48 h treatment, alamar blue additional 48 h, read-out: IC50 H1650
[3] = NCI-H1650, dose response 10 M to 5 nM, IC50, read-out: Dose Response (uM) H1650
[4] = NCI-H2030, 48 h, H2030, 12 point doubling dilution 10 uM to 5 nM, 48 h treatment, alamar blue additional 48 h, read-out: IC50 H2030
[5] = NCI-H2030, dose response 10 M to 5 nM, IC50, read-out: Dose Response (uM) H2030
[6] = H358, 12 point doubling dilution 10 uM to 5 nM, 48 h treatment, alamar blue additional 48 h, read-out: IC50 H358
[7] = read-out: Dose Response (uM) H358
[8] = H1734, 12 point doubling dilution 10 uM to 5 nM, 48 h treatment, alamar blue additional 48 h, read-out: IC50 H1734
[9] = read-out: Dose Response (uM) H1734
[10] = NCI-H3255, 48 h, H3255, 12 point doubling dilution 10 uM to 5 nM, 48 h treatment, alamar blue additional 48 h, read-out: IC50 H3255
[11] = NCI-H3255, dose response 10 M to 5 nM, IC50, read-out: Dose Response (uM) H3255

IC50 (PC9) [nM]	IC50 (H460) [nM]	IC50 (H1650; [2]) [µM]	IC50 (H1650; [3]) [µM]	IC50 (H2030; [4]) [µM]	IC50 (H2030; [5]) [µM]	IC50 (H2444) [nM]	IC50 (H358; [6]) [µM]	IC50 (H358; [7]) [µM]	IC50 (H820) [nM]	IC50 (H1734; [8]) [µM]	IC50 (H1734; [9]) [µM]	IC50 (H3255; [10]) [µM]	IC50 (H3255; [11]) [µM]	IC50 (H2122) [nM]	IC50 (A549) [nM]	Structure (SMILES)	IC50 [1] [nM]	IC50 (H23) [nM]
680	890	1.04	1.51	0.22	0.61	230	0.27	0.13	180	1.5	1.63	0.71	0.38	1120	840	COCCOc1cccc(-n2ncc(Br)c(Br)c2=O)c1 [compound 267084]	180	170
970	1470	0.51	1.36	0.47	0.67	400	0.69	0.24	290	1.23	0.93	0.99	1.11	1420	1650	NCCCOc1cccc(-n2ncc(Br)c(Br)c2=O)c1 [compound 273634]	350	380

More lines, now with the values behind:

Structure (SMILES)	IC50 (PC9) [nM]	IC50 (H460) [nM]	IC50 (H1650; [2]) [µM]	IC50 (H1650; [3]) [µM]	IC50 (H2030; [4]) [µM]	IC50 (H2030; [5]) [µM]	IC50 (H2444) [nM]	IC50 (H358; [6]) [µM]	IC50 (H358; [7]) [µM]	IC50 (H820) [nM]	IC50 (H1734; [8]) [µM]	IC50 (H1734; [9]) [µM]	IC50 (H3255; [10]) [µM]	IC50 (H3255; [11]) [µM]	IC50 (H2122) [nM]	IC50 (A549) [nM]	IC50 [1] [nM]	IC50 (H23) [nM]
COc1cccc(-n2ncc(Br)c(Br)c2=O)c1 [compound 267083]	740	910	1.08	1.06	0.26	0.57	280	0.3	0.13	200	1.36	1.31	0.65	0.35	1150	1070	220	210
Cc1cccc(-n2ncc(I)c(I)c2=O)c1 [compound 267085]	2240	3490	3.16	1.93	0.81	0.99	530	1.33	0.3	410	2.99	1.94	2.13	0.71	2340	3270	680	720
O=c1c(Cl)c(Cl)cnn1-c1ccccn1 [compound 267090]	470	790	1.42	1.29	0.17	0.41	220	0.21	0.06	140	2.47	1.1	0.7	0.5	890	540	170	80
